Measured values reported in US12037327B2, “Compounds and methods targeting GPER for treatment of diseases associated with calcium” (Saint Louis University, priority 2018, dated 2024).
Entries after “also recorded” stand apart in the source; their conditions may differ.

Tests used:
[1] = biological target: T1, GPER (Homo sapiens, UniProt Q99527); assay: calcium mobilization assay, agonists tested against EC50 of GPER antagonist G-36; type: cell-based; settings: for change in calcium efflux in response to G-36: agonist at 100 nM against EC50 of G-36, normalized; for calcium signal when antagonized with G-36: concentration not given
T1 construct: siRNA was used to knock-down expression of GPER; endogenous in cells; host or cells: HL-60 (human myelocytic leukemia) cells
T1 sequence (Q99527 whole entry): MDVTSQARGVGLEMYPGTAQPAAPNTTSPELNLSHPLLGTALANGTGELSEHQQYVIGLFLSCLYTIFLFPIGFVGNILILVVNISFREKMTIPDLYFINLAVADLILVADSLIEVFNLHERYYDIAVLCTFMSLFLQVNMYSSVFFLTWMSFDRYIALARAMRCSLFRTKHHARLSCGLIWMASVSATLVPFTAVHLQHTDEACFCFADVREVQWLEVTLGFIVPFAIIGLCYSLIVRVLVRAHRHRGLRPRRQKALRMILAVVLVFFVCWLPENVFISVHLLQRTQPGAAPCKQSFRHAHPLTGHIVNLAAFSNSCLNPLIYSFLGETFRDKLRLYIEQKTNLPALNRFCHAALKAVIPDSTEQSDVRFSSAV
Description: Each signal was normalized to the baseline signaling of G-36 and the maximum signal achieved by the specific agonist. Results are shown at 100 nM.
Calcium mobilization signal was assessed with the use of 0.1% pluronic acid and 5 μM Indo-1AM, a ratiometric dye. The EC50 values were determined based upon triplicate runs on triplicate plates. […] Cyclic AMP formation through the Gi/o-pathway was monitored utilizing a homogenous time-resolved fluorescence assay purchased from CisBio. A triplicate was performed and an EC50 value was calculated. […] The EC50 values were determined based upon triplicate runs on a triplicate plates. To confirm that calcium efflux originated from activation of the G protein-coupled estrogen receptor (GPER), a known selective antagonist, G-36 was used to antagonize the signal. […] Additional data can be found in FIG. 9. […] Without wishing to be bound by any theory, it is believed that within the new functionalization of the scaffold the lone pair on the oxygen of furfuran ring system and the nitrogen on pyridinyl ring system work to activate the receptor. […] Based upon neurite outgrowth studies and without wishing to be bound by any theory, it is believed that the compounds may aid in the elongation and connectivity of neurons. This has implication in a variety of neurodegenerative diseases, such as Alzheimer's disease and Parkinson's disease, but also psychiatric illnesses including Austism and Schizophrenia.

[2] = tested on: E18 embryonic rat cortical neurons; assay: neurite outgrowth in E18 embryonic rat neurons; type: cell-based; settings: for neurite outgrowth with GPER antagonist G-15: 100 nM agonist plus 100 nM G-15; for neurite outgrowth: 100 nM agonist, 72 hours, compared to vehicle control
[3] = biological target: T2, G protein-coupled estrogen receptor (GPER) (Homo sapiens, UniProt Q99527); assay: HTRF cAMP formation assay in HL-60 cells; type: cell-based; settings: values with * unexplained
T2 construct: siRNA was used to knock-down expression of GPER; endogenous in cells; host or cells: HL-60 (human myelocytic leukemia) cells
T2 sequence (Q99527 whole entry): as above
Description: For cAMP formation studies to determine potentcy, a homogeneous time resolved fluorescence (HTRF®) components for cAMP was purchased by CisBio (Bedford, MA). HL-60 cells were grown in 10% charcoal-stripped RPMI media for 72 hours prior to assays. Cells were centrifuged and counted with a hemocytometer from Hausser Scientific (Horsham, PA). The total number of cells needed to complete the assay was determined based upon 8,000 cells/well. The determined number of cells was diluted in 5:1 (5×) stimulation buffer contain 500 μM of 3-isobutyl-1-methylxanthine (IBMX) (Sigma Aldrich, Saint Louis, MO). To an HTRF 96-well low volume white plate from CisBio, 2 μL of (5×) agonist was added to the designated wells, followed by 8 μL of col cell suspension. Two controls were run during the experiment to establish basal cAMP formation and […] cAMP with the use of 20 μM forskolin. Cells were covered with a clear plastic film and incubated at 37° C. for 15 mins. During the 15 minutes incubation a 4:1 solution of lysis buffer to dye was prepared individually. After the 15 minute incubation 5 μL of lysis buffer/cAMP-d2 (acceptor) and 5 μL of lysis buffer/monocolonal anti-cAMP Eu3^+ cryptate (donor) were added to all wells. Once added, the plate was sealed, covered with aluminum foil, and incubated at room temperature for 30 mins. After the allotted time cells were read using Flexstation3 and with λex 314 nm and λem 665 nm/λem 620. Antagonism assay format varied slightly. […] To the plate, 2 μL of (5×) antagonist were added dose wise followed by the addition of 6 μL of cold cell suspension to all wells. Controls from the agonism assay remained the same in the antagonism assay. Cells and antagonists were incubated for 20 minutes at 37° C. […] Similar to the agonism assay a 4:1 ratio of lysis buffer to donor/acceptor were prepared. Following the previous incubation period, 5 μL of lysis buffer/cAMP-d2 (acceptor) and 5 μL of lysis buffer/monocolonal anti-cAMP Eu3^+ cryptate (donor) were added to all wells. Cells were allowed to equilibrate at room temperature for 30 minutes before being read at λex 314 nm and λem 665 nm/λem 620.
(§1) Calcium mobilization signal was assessed with the use of 0.1% pluronic acid and 5 μM Indo-1AM, a ratiometric dye. The EC50 values were determined based upon triplicate runs on triplicate plates. […] Cyclic AMP formation through the Gi/o-pathway was monitored utilizing a homogenous time-resolved fluorescence assay purchased from CisBio. A triplicate was performed and an EC50 value was calculated. […] The EC50 values were determined based upon triplicate runs on a triplicate plates.

[4] = biological target: T2, G protein-coupled estrogen receptor (GPER); assay: calcium mobilization assay in HL-60 cells (Indo-1AM); type: cell-based; settings: triplicate runs on triplicate plates, read-out: EC50 (Ca^2+)
Description: For the calcium mobilization studies, Human Myelocytic Leukemia (HL-60) cells were grown in phenol red free media containing 10% activated fetal bovine serum (FBS), 1% Pen-Strep, and 1% Glutamax. Cells were grown to no more than 1×10^6 cells/mL to prevent differentiation before being split. Prior to assay cells were transferred to phenol red free media containing charcoal-stripped FBS. On the day of the assay cells were centrifuged down at 16.4 G for 5 minutes and washed with 50:1 HBSS/HEPES. Cells were resuspended at 1×10^7 cells/mL in 50:1 HBSS/HEPES. To the resuspended cells, […] pluronic acid and 5 uM of fluorescent calcium indicator, Indo-1AM, were added. The dye solution was incubated for 0.5 hrs at room temperature with rocking. After 30 minutes cells were spun down, and resuspended in 50:1 HBSS/HEPES. Cells were placed on ice for at least 5 minutes and then resuspended in 8.5 mL of 50:1 HBSS/HEPES for agonism assays. For agonism assays 160 μL of cell suspension were added to a 96-well plate and were incubated at […] for 20 minutes in a FlexStation® 3 plate reader (Molecular Devices). Inside the plate reader, 40 μL of agonist were added to each well and excited with 350 nm and read at emissions of 405 nm and 490 nm.
as §1

[5] = biological target: T1, GPER; assay: cAMP competition study with selective GPER antagonist in HL-60 cells; type: cell-based; settings: EC50 of G-36 plus 1 μM agonist, compared to agonist alone at 1 μM
Description: In cAMP competition studies HL-60 cells were grown in 10% charcoal-stripped RPMI media for 72 hours prior to assays. Cells were centrifuged and counted with a hemocytometer from Hausser Scientific (Horsham, PA). The total number of cells needed to complete the assay was determined based upon 8,000 cells/well. The determined number of cells was diluted in 5:1 (5×) stimulation buffer contain 500 μM of 3-isobutyl-1-methylxanthine (IBMX) (Sigma Aldrich, Saint Louis, MO). […] Following the incubation period, 2 μL of various concentrations of compound (5×) were added. […] The plate was sealed and incubated at 37° C. for 10 minutes. After 10 minutes a 4:1 ratio of lysis buffer to donor/acceptor were individually prepared and 5 μL of lysis buffer/cAMP-d2 (acceptor) and 5 μL of lysis buffer/monocolonal anti-cAMP Eu3+ cryptate (donor) were added to all wells. The assay plate was sealed and incubated at room temperature for 30 minutes before being read at λex 314 nm and λem 665 nm/λem 620.

[6] = biological target: T3, ERα (Homo sapiens, UniProt P03372); assay: ERα PolarScreen fluorescence polarization competitor assay; type: binding; settings: duplicate
T3 construct: purchased Invitrogen (Carlsbad, CA)
T3 sequence (P03372 1-595): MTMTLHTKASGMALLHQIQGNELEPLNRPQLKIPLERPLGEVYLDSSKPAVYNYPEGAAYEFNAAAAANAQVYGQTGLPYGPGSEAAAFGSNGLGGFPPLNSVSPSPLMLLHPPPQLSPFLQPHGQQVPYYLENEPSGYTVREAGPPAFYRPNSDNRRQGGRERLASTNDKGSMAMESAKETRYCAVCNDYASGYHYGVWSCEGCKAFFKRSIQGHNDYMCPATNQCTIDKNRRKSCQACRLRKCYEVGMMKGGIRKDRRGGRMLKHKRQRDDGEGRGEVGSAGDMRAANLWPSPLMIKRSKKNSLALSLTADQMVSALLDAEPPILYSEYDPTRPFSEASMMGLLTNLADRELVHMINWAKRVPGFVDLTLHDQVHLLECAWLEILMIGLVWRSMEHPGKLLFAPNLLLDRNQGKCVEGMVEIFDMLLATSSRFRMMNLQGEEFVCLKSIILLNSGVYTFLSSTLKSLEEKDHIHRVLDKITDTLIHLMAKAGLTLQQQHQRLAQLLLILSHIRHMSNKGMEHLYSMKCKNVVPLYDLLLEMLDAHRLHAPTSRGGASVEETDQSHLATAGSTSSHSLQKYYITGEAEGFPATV
Description: (§2) FIGS. 3A & 3B show fluorescence polarization studies performed on classical estrogen receptors, ERα and ERβ, to determine off-target binding. Studies were performed in duplicate. […] Overall, it appears that compound 1 binds greater to ERβ than ERα and compound 2 binds to ERα but not ERβ.
(§3) The ERα and ERβ PolarScreen™ Competitor Assays by Invitrogen (Carlsbad, CA) were purchased and utilized to determine binding to the classical nuclear esetrogen recetors, ERα and ERβ. The concentrations of the ERα and ERβ enzyme varied between the two assays. A 4× sample of ERα was prepared for a final concentration of 75 nM. Conversely, a 4× sample of ERβ was prepared for a final concentration of 23 nM within the assay. For both ERα and ERβ a 4× aliquot of Fluoromone was prepared for a final assay concentration of 4.5 nM. Despite the differences in concentration of ERα and ERβ, the binding assay protocol for the two different enzymes remained the same. Drug dilutions were prepared for a 2× dilution in the ER specific buffer that was provided within the assay kit. In addition to the drug dilutions a 2× aliquot of Fluoromone was prepared by adding 10 uL of 4× with 10 uL of ER specific buffer. A 2× dilution of enzyme and fluorophore was achieved by adding equal portions of each to each other. […] The plate was incubated at RT for 2 hours before being read with λex 485 nm and λem 535 nm.

[7] = biological target: T1, GPER; assay: calcium mobilization after siRNA knock down of GPER in HL-60 cells; type: cell-based; settings: HL-60 cells not treated with siRNA; 1 μM
[8] = biological target: T4, ERβ (Homo sapiens, UniProt Q92731); assay: ERβ PolarScreen fluorescence polarization competitor assay; type: binding; settings: duplicate
T4 construct: purchased Invitrogen (Carlsbad, CA)
T4 sequence (Q92731 whole entry): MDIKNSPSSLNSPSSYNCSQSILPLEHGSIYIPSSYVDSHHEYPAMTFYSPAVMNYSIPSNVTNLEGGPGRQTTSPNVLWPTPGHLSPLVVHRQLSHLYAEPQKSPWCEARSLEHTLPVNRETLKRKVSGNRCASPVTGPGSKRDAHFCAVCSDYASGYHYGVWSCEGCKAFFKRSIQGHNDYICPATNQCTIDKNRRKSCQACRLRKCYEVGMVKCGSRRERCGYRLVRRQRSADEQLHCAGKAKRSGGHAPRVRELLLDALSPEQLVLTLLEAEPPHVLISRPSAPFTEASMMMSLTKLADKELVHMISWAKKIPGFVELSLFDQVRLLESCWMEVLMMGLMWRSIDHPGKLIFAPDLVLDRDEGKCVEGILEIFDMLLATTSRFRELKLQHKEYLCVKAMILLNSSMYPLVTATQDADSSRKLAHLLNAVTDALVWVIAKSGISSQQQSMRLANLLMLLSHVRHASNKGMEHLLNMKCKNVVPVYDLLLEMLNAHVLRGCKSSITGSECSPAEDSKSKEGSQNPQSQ
Description: as §2, §3

Compound | change in calcium efflux in response to G-36 [1] | calcium signal when antagonized with G-36 [1] | EC50 [3] [nM] | EC50 [4] [nM] | activation of adenylate cyclase and cAMP formation when challenged against G-36 [5] | calcium compared to the vehicle control, no siRNA [7] | neurite outgrowth with GPER antagonist G-15 [2] | neurite outgrowth [2] | binding to ERα [6] | binding to ERβ [8]
COc1ccc(CNc2ccc(C(C)C)cc2C2CCCCC2)cn1 [Compound 6] |  |  | 1250 ± 304 | 52.1 ± 12.1 |  |  |  |  |  | 
CC(=O)c1ccc2c(c1)C1C=CCC1C(c1cc3c(cc1Br)OCO3)N2 (centres unmarked) [Compound G-1, reference compound] |  |  |  |  |  |  | reduction in signal | statistically significant increase |  | 
CCOCc1ccc(CNc2ccc(C(C)C)cc2C2CCCCC2)o1 [Compound 37] |  |  |  |  |  |  | significantly diminished | statistically significant increase |  | 
CC(C)c1ccc(NCc2ccoc2)c(C2CCCCC2)c1 [Compound 26] |  |  |  |  |  |  | significantly diminished | statistically significant increase |  | 

Now from value to compound, other results behind:

change in calcium efflux in response to G-36 [1] | calcium signal when antagonized with G-36 [1] | EC50 [3] [nM] | EC50 [4] [nM] | activation of adenylate cyclase and cAMP formation when challenged against G-36 [5] | calcium compared to the vehicle control, no siRNA [7] | Compound | neurite outgrowth with GPER antagonist G-15 [2] | neurite outgrowth [2] | binding to ERα [6] | binding to ERβ [8]
statistically significant decrease | reduced to basal response | 389 ± 61.6 | 50.8 ± 5.81 |  |  | CCOCc1ccc(CNc2ccc(C(C)C)cc2C2CCCCC2)o1 [Compound 5] | reduction in signal | statistically significant increase |  | 
significant reduction |  | 290 ± 58 | 38.7 ± 12.9 |  |  | CC(C)c1ccc(NCc2ccc(C3CCCCO3)o2)c(C2CCCCC2)c1 (centres unmarked) [Compound 4] |  |  |  | 
statistically significant decrease | reduced to basal response | 830 ± 273 | 60.1 ± 18.2 |  |  | COCc1ccc(CNc2ccc(C(C)C)cc2C2CCCCC2)o1 [Compound 7] |  |  |  | 
significant increase |  | 1590 | 1300 ± 322 | statistically significant reduction | no statically significant difference | CC(C)c1ccc(NCc2ccc(CO)o2)c(C2CCCCC2)c1 [Compound 1] |  |  | exhibit binding; also recorded: significant binding | exhibit binding; also recorded: appeared to show binding
significant reduction |  | 948 ± 272 | 94.4 ± 11.8 |  |  | CC(C)c1ccc(NCc2ccc(C3OCCO3)o2)c(C2CCCCC2)c1 [Compound 3] |  |  |  | 
significant increase | reduced to basal response | 1190 | 699 ± 85 | statistically significant reduction | no statically significant difference | CC(C)c1ccc(NCc2ccoc2)c(C2CCCCC2)c1 [Compound 2] | reduction in signal | statistically significant increase | exhibit binding; also recorded: significant binding | exhibit binding; also recorded: binding trend for compound 2 was less consistent
